Data taken from patent US5387614A, “Use of sigma receptor ligands as salivary gland stimulants” (University of Iowa Research Foundation, priority 1993, dated 1995).
One block for each compound: values may come before it.

Experiments:
[1] = tested on: salivary secretion; assay: Saliva flow observed after topical dosing of the rabbit eye; format: in vivo; details: rabbit eye dosed topically (use as dry eye syndrome treatment)
Text: The observations of effective salivary stimulation actually occurred during use of the most preferred compound wherein N=2, and R and R" are methyl, as dry eye syndrome treatment. […] This led to further investigations of this and other compounds as a means of treating dry mouth associated with, for example, Sjogren's syndrome. The present compound for example could be formulated into a conventional lozenge for a topical application directly in the oral cavity to stimulate saliva flow. Such lozenges can either be made by dissolving the drug in water, adding powdered sugar, flavor and a gum (e.g., 7% powdered acacia) to give sufficient adhesiveness. This type of lozenge is harder than a conventional tablet, but dissolves slowly. The lozenge formulation is made by compressing the formula on a tablet press according to the art.

[2] = biological target: sigma receptors; assay: Radioligand competition experiments in submaxillary gland membrane homogenate; format: binding, New Zealand white rabbits; details: radioligand 3H-DTG (5 nM); rabbit submaxillary gland membranes; 4° C., 60 minutes; spiperone 25 nM; mean ± spread; read-out: averaged IC50
Description: In this procedure, New Zealand white rabbits were sacrificed using 1/2-1 ml of Beuthanasia-D Special (Schering Plough Animal Health, Keniworth, N.J.: 390 mg pentobarital sodium and 50 mg phenytoin sodium per ml) by injecting the preparation into the marginal ear vein. Whole submaxillary glands, free of blood, were dissected and either used immediately or frozen in cold 100 mM tris-HCl (pH 7.4) buffer. Glandular tissue was rinsed with cold 50 mM Tris-HCl (pH 7.4) followed by homogenization for 30 sec (Polytron, Brinkman Instr., setting 7). The homogenate was centrifuged at 800 rpm for 10 min at 4° C. to remove extraneous tissue. Then the supernatant was centrifuged at 75,000 Xg for 15 min at 4° C. (model L8-55, Preparative Ultracentrifuge, Beckman Instruments, Fullerton, Calif.). Following centrifugation, the pellet was homogenized again in 100 mM tris-HCl buffer and centrifuged at 75,000 Xg for 15 min. […]
Spiperone (25 nM) was added to prevent binding to D2 dopamine, or 5HT2 serotonin receptors. […] The filter along with the adhering precipitate was transferred to a scintillation vial containing 1 mL of tissue solubilizer (Soluene 350, Packard Inst., Downers Grove, Ill.) and 4 mL of scintillation fluid (Budget Solve , Fisher Scientific, Fair Lawn, N.J.) and counted (Beckman LS 3801). […] Specific binding was determined by subtracting NSB from total binding. […]

[3] = biological target: sigma-binding site; assay: 3H-DTG radioligand saturation binding (Scatchard plot) in submaxillary gland membrane homogenate; set-up: species or system New Zealand white rabbits; details: single binding site; membrane homogenate of acini cells from rabbit submaxillary gland; 4° C., 60 min; spiperone 25 nM
Description: In this procedure, New Zealand white rabbits were sacrificed using 1/2-1 ml of Beuthanasia-D Special (Schering Plough Animal Health, Keniworth, N.J.: 390 mg pentobarital sodium and 50 mg phenytoin sodium per ml) by injecting the preparation into the marginal ear vein. Whole submaxillary glands, free of blood, were dissected and either used immediately or frozen in cold 100 mM tris-HCl (pH 7.4) buffer. Glandular tissue was rinsed with cold 50 mM Tris-HCl (pH 7.4) followed by homogenization for 30 sec (Polytron, Brinkman Instr., setting 7). The homogenate was centrifuged at 800 rpm for 10 min at 4° C. to remove extraneous tissue. Then the supernatant was centrifuged at 75,000 Xg for 15 min at 4° C. (model L8-55, Preparative Ultracentrifuge, Beckman Instruments, Fullerton, Calif.). Following centrifugation, the pellet was homogenized again in 100 mM tris-HCl buffer and centrifuged at 75,000 Xg for 15 min. The resulting pellet containing the membrane fragments was suspended in Tris-HCl buffer to yield a concentration of 250 mg (wet wt) per mL. […]
Spiperone (25 nM) was added to prevent binding to D2 dopamine or 5HT2 serotonin receptors. […] The filter, containing the precipitate, was transferred to a scintillation vial containing 1 mL of tissue solubilizer (Soluene 350, Packard Inst.) and 4 mL of scintillation fluid (Budget Solve , Fisher Scientific, Fair Lawn, N.J.) and counted (Beckman LS 3801). […]

SMILES: CN(C)CCc1ccccc1 [most preferred compound, N,N-dimethyl-2-phenylethylamine]
saliva flow [1]: copious amounts of saliva flowed from about one half of the rabbits

IC50 [2]: 0.69 ± 0.276 µM
SMILES: CN(Cc1cc(Br)cc(Br)c1N)C1CCCCC1 [bromhexine]

SMILES: Cc1ccccc1NC(=N)Nc1ccccc1C [3H-DTG]
Kd [3]: 0.006 ± 0.0012 µM
